Assay results from US10413502B2, “Cosmetic use of a peppermint extract” (LVMH RECHERCHE, priority 2015, dated 2019).

Test system: gap junctions between keratinocytes
Assay: Transfer of the dye lucifer yellow between keratinocytes via gap junctions
Format: cell-based
Settings: substance alone

C[C@H](NC(=O)Cc1cc(F)cc(F)c1)C(=O)N[C@H](C(=O)OC(C)(C)C)c1ccccc1 [DAPT, N—[N-(3,5-difluorophenacetyl)-L-alanyl]-S-phenylglycine t-butyl ester]
diffusion of lucifer yellow between keratinocytes (exchanges via gap junctions): greatly reduced
